Test system: Trichophyton rubrum strain NCPF0118
Assay: Ex vivo human nail fragment model, treatment of established infection (cfu recovered)
Type: cell-based
Description: For antifungal efficacy studies with human toe nails, a solution of 50% (w/v) PEG 8000 (Sigma-Aldrich; Cat No P2139) was prepared by autoclaving and then diluting with sterile 50% (w/v) urea solution (Sigma-Aldrich; Cat No 51457). This solution was mixed thoroughly by vortexing and allowed to stabilise at 50° C. for up to 2 h. After stabilisation, the temperature was allowed to drop to below 40° C. and a concentrated, filter-sterilised solution of Novexatin® (NP213), dissolved in deionised water was added. Final concentrations of PEG 8000 of 50% (w/v), urea of 0-20% (w/v) and Novexatin® (NP213) of 0-10% (w/v) were used in the experiments described below.
On arrival, the cultures were transferred to a Petri dish containing sterile Sabouraud Dextrose agar (Sigma-Aldrich; Cat No 84088, or equivalent) and grown for up to 7 d at 30° C. The resulting growth was scraped off and re-suspended in Sabouraud's liquid medium (Oxoid; Cat No CM 147, or equivalent) containing […] dimethyl sulfoxide (DMSO) as cryoprotectant to create a culture stock. The fungus was stored in 0.5 ml aliquots in 2 ml screw-capped polypropylene vials (Cryovials) at −80° C. Seven days prior to experimental use, 50 μl of the culture stock was used to inoculate a slope of Potato Dextrose agar (Merck; Cat No VM556130 609, or equivalent), which was incubated at 30° C. for up to 7 d. The surface of the resulting growth was gently perturbed in 3 ml of sterile distilled/deionised water. After filtration through 2 layers of sterile surgical gauze to remove debris and larger clumps of biomass, the absorbance of the resultant spore suspension was measured at 530 nm, then adjusted to the 0.5 MacFarland standard (OD approx. 0.15)^2.
Human toe nails were obtained from a podiatrist in Aberdeen following a successful application to the Grampian Local Research Ethics Committee. […] Large toe nails were cut into 4 pieces, each approximately 1 cm^2 in area, using nail clippers. Nails of normal thickness (≦2 mm) were chosen. The 4 fragments cut from each single nail were placed in quadrants marked on Petri-dishes containing phosphate buffered saline rendered solid with 1.2% (w/v) Technical Agar No. 3 (Oxoid; Cat No LP0013, or equivalent), subsequently referred to as PBS agar. The nail fragments were of irregular shape, so to ensure that each nail received the appropriate amount of the treatment solutions, the surface area was measured by photographing the nails over graph paper and determining the number of 1mm^2 squares covered by each nail. The thickness of the nails was measured with a micrometer and nails distributed among treatment groups, to avoid nail thickness providing an additional experimental variable.
Twenty four nail fragments from 6 whole large toenails were each inoculated with 10 μl of a spore suspension of T. rubrum NCPF0118 which was prepared as described above. The inoculum was applied to the ventral side of the nail (i.e. the side next to the skin in situ). The nails were incubated for 7 d at 30° C. to allow the fungus to infect the nail tissue. After this pre-incubation period, 12 of the fragments were assigned to each of 2 different treatment protocols, involving daily treatment with 2 different vehicle solutions, each containing a control and 3 different concentrations of Novexatin® (NP213). These vehicle solutions were: 50% (w/v) PEG 8000, and 50% (w/v) PEG 8000 plus 20% (w/v) urea. The concentrations of Novexatin® (NP213) studied were 0%, 1%, 5% and 10% (w/v). The solutions were applied at a volume of 10 μl/cm^2, corrected for the surface area of the different nail fragments as described above. The applied solution was spread over the dorsal side of the nail, to mimic the intended clinical treatment and the ventral side of the nail rested on the agar surface. Each time the nails were treated, they were transferred to a new sterile Petri dish containing PBS agar to minimise any build-up of fungal growth on the agar. Nail fragments were treated daily for 28 days. […]

[1] = Experiment 1, 5% (w/v), absence of urea, daily 28 days

7 to 200-mer (SEQ ID NO: 3) polyarginine [Novexatin® (NP213)]
killing of T. rubrum NCPF0118 on nail fragments (dose dependence) (Experiment 1, 0%, 1%, 5%, 10% (w/v) in 50% PEG 8000 with or without 20% urea, daily for 28 days): dose-dependent
reduction in fungal survival (Experiment 1, 1% (w/v), daily 28 days): approximately 1 log10
fungi isolated with 20% (w/v) urea added to the vehicle, versus vehicle alone (Experiment 1, 1% (w/v), not statistically significant): fewer fungi than in vehicle alone
fungal colonies isolated from nail fragments (Experiment 1, 5% (w/v) with 20% (w/v) urea in vehicle, daily 28 days): no colonies were isolated
decrease in survival of the fungus compared to controls [1]: approximately 3 log10
fungal colonies isolated from nail fragments [1]: a small number of colonies were detected
recoverable fungal growth after treatment (Experiment 5, 10% (w/v), approximately 100×MIC100, 14 d or 28 d, daily): no recoverable fungal growth

— US20130109049A1, “Method of Establishing a Fungal Nail Infection” (NOVABIOTICS LIMITED, priority 2009, published 2013)
